Measured values as given in patent publication US20230399661A1, “SHUTTLE AGENT PEPTIDES OF MINIMAL LENGTH AND VARIANTS THEREOF ADAPTED FOR TRANSDUCTION OF CAS9-RNP AND OTHER NUCLEOPROTEIN CARGOS” (priority 2020, published 2023).

Tests used:
Assay type in all cases: cell-based, Human
HeLa cells [1] = test: GFP-NLS transduction in the presence or absence of Cas9-RNP complex, flow cytometry; design: GFP transduction efficiency: concentration or dose not given beside the values; conditions: for resistance/sensitivity of GFP transduction to inhibition by Cas9-RNP: presence vs absence of Cas9-RNP
Experimental: (§1) HeLa cells were plated (20 000 cells/well) in a 96 well-plate the day prior to the experiment in DMEM containing 10% FBS. A mix was prepared containing a synthetic peptide shuttle agent (10-30 μM), the GFP-NLS (10 μM) with or without a Cas9-NLS recombinant protein (2.5 μM) complexed with a crRNA/tracrRNA (2 μM) targeting the beta-2 microglobulin (B2M) gene and completed to 50 μL with PBS. Cells were washed once with PBS and the shuttle/GFP-NLS/Cas9-RNP mix was added to the cells and incubated for one minute. Then 100 μL DMEM containing 10% FBS was added to the mix. Cells were then immediately washed once with PBS and incubated in DMEM containing 10% FBS for two hours. Cells were the analyzed by flow cytometry.
To better understand the inhibitory effect of Cas9-RNP on shuttle agent transduction activity, HeLa cells were incubated with different peptides/shuttle agents and GFP cargo, in the presence or absence of Cas9-RNP, and delivery of GFP was assessed by flow cytometry, as described in Example 1. […] For some shuttle agents, the effect was particularly striking. For example, the GFP transduction efficiency for FSD268 decreased from 92% to 29%, the GFP transduction efficiency for FSD250 decreased from 83% to 13%, the GFP transduction efficiency for FSD10 decreased from 76% to 22%, and the GFP transduction efficiency for FSD395 decreased from 91% to 17%. […] Structure-activity relationships were explored further by repeating the above transduction experiments with shuttle agent variants sharing the same “core” amphipathic cationic alpha helical region as FSD10-15 (FIG. 4A), CM18 (FIG. 4B), and FSD356 (FIG. 4C).

HeLa cells [2] = test: GFP or PI delivery by short/truncated shuttle agents, flow cytometry; conditions: GFP or PI cargo
Experimental: HeLa cells were plated (20 000 cells/well) in a 96 well-plate the day prior to the experiment in DMEM containing 10% FBS. Each delivery mix comprising a synthetic peptide shuttle agent (10-30 μM) and GFP-NLS (10 μM) was prepared and completed to 50 μL with RPMI 1640 media. Cells were washed once with phosphate-buffered saline (PBS) and the shuttle/GFP-NLS mix was added to the cells and incubated for five minutes. Then 100 μL DMEM containing 10% FBS was added to the mix. Cells were then immediately washed once with PBS and incubated in DMEM containing 10% FBS for two hours. Cells were then analyzed by flow cytometry.
HeLa cells were plated (20 000 cells/well) in a 96 well-plate the day prior to the experiment in DMEM containing 10% FBS. […] Cells were then analyzed by flow cytometry.
To test the transduction activity of short/truncated synthetic shuttle agents (e.g., generally having less than 20 amino acids), HeLa cells were incubated with control peptides and N-terminal shuttle agent fragments of different lengths and delivery of GFP or PI was assessed by flow cytometry as described in Example 1. […] The Overall Delivery Factor represents a single number that accounts for the toxicity of each shuttle agent/peptide, as well as its ability to deliver GFP and PI, and was calculated as follows: […]

CFF-16HBEge cells [3] = test: ABE-Cas9-RNP delivery, base editing evaluated by next-generation sequencing; conditions: NGS; for base editing (ABE-Cas9-RNP): compared to non-treated cells
Experimental: (§2) For Cas9-RNP or ABE-Cas9-RNP transduction, a mix of Cas9-NLS or ABE-Cas9 recombinant protein (2.5 μM) complexed with a crRNA/tracrRNA (2 μM) targeting the beta-2 microglobulin (B2M) gene were co-incubated with 10-20 μM of synthetic peptide shuttle agent in a final volume of 50 μL completed with PBS. Cells were washed once with PBS and the shuttle/Cas9-RNP complex was added to the cells for and incubated for 60 to 90 seconds. Then 100 μL of DMEM (HeLa) or Alpha-MEM (CFF-16HBEge) containing 10% FBS was added to the mix. Cells were then immediately washed once with PBS and incubated in DMEM (HeLa) or Alpha-MEM (CFF-16HBEge) containing 10% FBS.
(§3) Further transduction experiments in CFF-16HBEge cells were performed to compare the ability of shuttle agents to deliver functional Cas9-RNP genome editing versus ABE-Cas9-RNP base editing complexes. Variants of the shuttle agent FSD10 (FIG. 8A) were tested in parallel, and genome editing/base editing results as evaluated by next-generation sequencing (NGS) are shown in FIGS. 8B and 8C for Cas9-RNP and ABE-Cas9-RNP, respectively.

CFF-16HBEge cells [4] = test: Cas9-RNP delivery, B2M genome editing; conditions: for genome editing (Cas9-RNP): NGS, compared to non-treated cells; for genome editing with Cas9-RNP as cargo: B2M knockout, versus non-treated negative control
Experimental: HeLa cells were plated (10 000 cells/well) in a 96 well-plate the day prior to the experiment in DMEM containing 10% FBS. CFF-16HBEge cells were plated (10 000 cells/well) in a 96 well-plate the day prior to the experiment in Alpha-MEM containing 10% FBS.
as §2
Genome editing events resulting in the absence of B2M protein (knockout) at the cell surface were determined by flow cytometry 6 days post-transduction. Cells were washed once with PBS and incubated with the anti-B2 microglobulin antibody (PE conjugated) (0.5 μL of anti-B2M-PE in […] 0.5% BSA/PBS) for 45 minutes at room temperature. Cells were washed twice with PBS and detached with 50 µL of Trypsin-EDTA for 10 minutes at 37° C. then inactivated by adding 100 μL of media containing 10% FBS. The percentage of knockout cells (cells without B2M antibody signal) was determined by flow cytometry.
A similar genome editing experiment as in Example 6 was performed in the Human Bronchial Epithelial cell line model of cystic fibrosis, CFF-16HBEge.
as §3

RH-30 cells = test: PMO-FITC transduction in the presence of sgRNA spiked in the medium, flow cytometry; conditions: 5 μM shuttle agent, 6 μM PMO-FITC, 2 μg of sgRNA (4 μg/mL)
From the text: Nuclear delivery of Cas9-sgRNA complexes (hereinafter Cas9-RNP) via first- and second-generation synthetic peptide shuttle agents generally occurs less efficiently than delivery of a Cas9 proteinaceous cargo alone (i.e., without its corresponding sgRNA; see Krishnamurthy et al., 2019, supplementary FIG. 6). The negative effect of the sgRNA (without Cas9) on shuttle agent-mediated transduction of a fluorescently-labelled charge-neutral polynucleotide analog cargo (phosphorodiamidate morpholino oligomer (PMO)) is also shown in FIG. 2A. Briefly, RH-30 cells (150,000 cells/well in 24-well dish) were contacted with a delivery mix containing 6 μM of PMO-FITC and 5 μM of the synthetic peptide shuttle agent FSD250 for 2 minutes in RPMI, in the presence of increasing amounts of sgRNA spiked in the medium. Cells were then washed, incubated in complete medium and then collected for analysis by flow cytometry after 1 h.

CFF-16HBEge cells [5] = test: GFP transduction in the presence or absence of Cas9-RNP in CFF-16HBEge cells
Experimental: as §1
The above transduction experiments were repeated with FSD10 and FSD375 in a Human Bronchial Epithelial cell line model of cystic fibrosis, CFF-16HBEge.

HeLa cells [6] = test: GFP-NLS transduction in presence of Cas9-RNP complex coated with small molecules; conditions: shuttle agent FSD250, up to 10 mM of the small molecule
Experimental: HeLa cells were plated (20 000 cells/well) in a 96 well-plate the day prior to the experiment in DMEM containing 10% FBS. The Cas9-RNP complex coated with small molecules was prepared by mixing a Cas9-NLS recombinant protein (5 μM) complexed with a crRNA/tracrRNA (4 μM) targeting the beta-2 microglobulin (B2M) gene with 0, 100 nM, 1 μM, 10 μM, 100 μM, 1 mM or 10 mM of either 1,3-diaminoguanidine monohydrochloride, 3,5-diamino-1,2,4-triazole, guanidine hydrochloride or L-arginine amide dihydrochloride. The Cas9 RNP complex coated with small molecules was completed to […] with PBS. The delivery mix was prepared by mixing a synthetic peptide shuttle agent (10 μM), the GFP-NLS (10 μM) with or without the Cas9 RNP complex coated or not with small molecules and completed to 50 μL with phosphate-buffered saline PBS. […] Cells were then analyzed by flow cytometry.
Hypothesizing that the inhibitory effect of the sgRNA was due to the negatively charged phosphate backbone of the RNA, we attempted to neutralize the negative charges by coating the Cas9-RNP complexes with small positively charged molecules prior to transduction. Delivery of GFP in HeLa cells in the presence of Cas9-RNP was assessed in the presence of small positively charged molecules such as 1,3-diaminoguanidine monohydrochloride; 3,5-diamino-1,2,4-triazole; guanidine hydrochloride; or L-arginine amide dihydrochloride.

Compound | GFP transduction efficiency (HeLa cells [1]; absence of Cas9-RNP) [%] | GFP transduction efficiency (HeLa cells [1]; presence of Cas9-RNP) [%] | resistance/sensitivity of GFP transduction to inhibition by Cas9-RNP (HeLa cells [1]) | genome editing with Cas9-RNP as cargo (CFF-16HBEge cells [4]) | other results
CM18: CM series peptide, 18 amino acids long; endosome leakage domain in some first generation shuttle agents (KWKLFKKIGAVLKVLTTG; CM18) [reference compound] | 32 | 28 | more resistant |  | GFP delivery score (HeLa cells [1]; FIGS. 3 and 4B, presence or absence of Cas9-RNP not stated): 1.8; transduction activity (HeLa cells [2]): transduction activity was observed
Linker-(FSD10-Cter)-Linker: negative control peptide: C-terminal cationic portion of FSD10 flanked by glycine/serine-rich linkers (GGSGGGSYARALRRQARTGGGSGGGS; Linker-(FSD10-Cter)-Linker) |  |  |  |  | base editing (ABE-Cas9-RNP) (CFF-16HBEge cells [3]): did not exhibit any detectable genome editing or base editing; genome editing (Cas9-RNP) (CFF-16HBEge cells [4]): did not exhibit any detectable genome editing
FSD10-Cter: negative control peptide consisting of the C-terminal cationic portion of FSD10 alone (YARALRRQARTG; FSD10-Cter) |  |  |  |  | base editing (ABE-Cas9-RNP) (CFF-16HBEge cells [3]): did not exhibit any detectable genome editing or base editing; genome editing (Cas9-RNP) (CFF-16HBEge cells [4]): did not exhibit any detectable genome editing
FSD250: synthetic peptide shuttle agent; FSD446 with C-terminal segment replaced with a cationic segment (KWKLLKLWSRLLKLWGGSGGGSARAARQAR; FSD250) | 83 | 13 |  |  | cargo transduction efficiency (PMO-FITC) (RH-30 cells): reduced cargo transduction efficiency
FSD375: FSD10-15 with flanking glycine/serine-rich residues (GGSGGGSKWKLARAFARAIKKLGGSGGGS; FSD375) |  |  | retained the peptide's resistance to Cas9-RNP | significant genome editing | base editing efficiency (ABE-Cas9-RNP) (CFF-16HBEge cells [3]): about 15%; GFP transduction activity relative to FSD10-15 (HeLa cells [1]; FIG. 4A): improving GFP transduction activity over FSD10-15; resistance to Cas9-RNP inhibition of GFP transduction (CFF-16HBEge cells [5]): greater resistance to Cas9-RNP inhibition than FSD10
FSD10: synthetic peptide shuttle agent; FSD10-15 core, glycine/serine-rich linker and second cationic domain (KWKLARAFARAIKKLGGSGGGSYARALRRQARTG; FSD10) | 76 | 22 | more sensitive to inhibition by Cas9-RNP | failed to show any increase in genome editing | 
Cl.N=C(NN)NN [1,3-diaminoguanidine monohydrochloride] |  |  |  |  | GFP transduction activity and Mean GFP delivery Scores in presence of Cas9-RNP coated with charge-neutralizing agent (HeLa cells [6]): significantly inhibited
FSD374: core amphipathic cationic domain (as FSD174) flanked by short segments of non-cationic hydrophilic residues (GGSGGGSLLKIWSRLIKIWTQGRRLGGSGGGS; FSD374) |  |  | virtually the same GFP transduction efficiency in the presence or absence of Cas9-RNP | significant genome editing | 
FSD395: synthetic peptide shuttle agent (KLKLLKLLLKLLKKLGGSGGGSQAKAQAKQAK; FSD395) | 91 | 17 |  | failed to show any increase in genome editing | 
